Consider 16 compounds from US20240208992A1, “MACROCYCLES AS CFTR MODULATORS” (Idorsia Pharmaceuticals Ltd, priority 2021, published 2024).

The target in this assay is human F508del-CFTR (Homo sapiens, UniProt P13569, DEL508-508). Description: F508del-CFTR cell surface expression (corrector activity), DiscoveRx ß-galactosidase complementation chemiluminescence assay in recombinant U2OS cell line.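 On all read-outs here: U2OS cells co-expressing ProLink-tagged F508del-CFTR and a membrane-anchored enzyme acceptor, where more surface CFTR restores β-galactosidase activity measured by chemiluminescence.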 The following applies: U2OS cell line, 16h compound incubation; for EC50: EC50, F508del-CFTR cell surface expression, geomean values; for Emax: U2OS, in relation to the Emax of the corrector lumacaftor (=100%), arithmetic mean values.

For orientation: EC50 means the concentration needed to bring the measured effect to its halfway point. The Emax is the greatest response seen or fitted, relative to the assay's reference.

Sequence of human F508del-CFTR (P13569 with tags, fused parts or gaps DEL508-508): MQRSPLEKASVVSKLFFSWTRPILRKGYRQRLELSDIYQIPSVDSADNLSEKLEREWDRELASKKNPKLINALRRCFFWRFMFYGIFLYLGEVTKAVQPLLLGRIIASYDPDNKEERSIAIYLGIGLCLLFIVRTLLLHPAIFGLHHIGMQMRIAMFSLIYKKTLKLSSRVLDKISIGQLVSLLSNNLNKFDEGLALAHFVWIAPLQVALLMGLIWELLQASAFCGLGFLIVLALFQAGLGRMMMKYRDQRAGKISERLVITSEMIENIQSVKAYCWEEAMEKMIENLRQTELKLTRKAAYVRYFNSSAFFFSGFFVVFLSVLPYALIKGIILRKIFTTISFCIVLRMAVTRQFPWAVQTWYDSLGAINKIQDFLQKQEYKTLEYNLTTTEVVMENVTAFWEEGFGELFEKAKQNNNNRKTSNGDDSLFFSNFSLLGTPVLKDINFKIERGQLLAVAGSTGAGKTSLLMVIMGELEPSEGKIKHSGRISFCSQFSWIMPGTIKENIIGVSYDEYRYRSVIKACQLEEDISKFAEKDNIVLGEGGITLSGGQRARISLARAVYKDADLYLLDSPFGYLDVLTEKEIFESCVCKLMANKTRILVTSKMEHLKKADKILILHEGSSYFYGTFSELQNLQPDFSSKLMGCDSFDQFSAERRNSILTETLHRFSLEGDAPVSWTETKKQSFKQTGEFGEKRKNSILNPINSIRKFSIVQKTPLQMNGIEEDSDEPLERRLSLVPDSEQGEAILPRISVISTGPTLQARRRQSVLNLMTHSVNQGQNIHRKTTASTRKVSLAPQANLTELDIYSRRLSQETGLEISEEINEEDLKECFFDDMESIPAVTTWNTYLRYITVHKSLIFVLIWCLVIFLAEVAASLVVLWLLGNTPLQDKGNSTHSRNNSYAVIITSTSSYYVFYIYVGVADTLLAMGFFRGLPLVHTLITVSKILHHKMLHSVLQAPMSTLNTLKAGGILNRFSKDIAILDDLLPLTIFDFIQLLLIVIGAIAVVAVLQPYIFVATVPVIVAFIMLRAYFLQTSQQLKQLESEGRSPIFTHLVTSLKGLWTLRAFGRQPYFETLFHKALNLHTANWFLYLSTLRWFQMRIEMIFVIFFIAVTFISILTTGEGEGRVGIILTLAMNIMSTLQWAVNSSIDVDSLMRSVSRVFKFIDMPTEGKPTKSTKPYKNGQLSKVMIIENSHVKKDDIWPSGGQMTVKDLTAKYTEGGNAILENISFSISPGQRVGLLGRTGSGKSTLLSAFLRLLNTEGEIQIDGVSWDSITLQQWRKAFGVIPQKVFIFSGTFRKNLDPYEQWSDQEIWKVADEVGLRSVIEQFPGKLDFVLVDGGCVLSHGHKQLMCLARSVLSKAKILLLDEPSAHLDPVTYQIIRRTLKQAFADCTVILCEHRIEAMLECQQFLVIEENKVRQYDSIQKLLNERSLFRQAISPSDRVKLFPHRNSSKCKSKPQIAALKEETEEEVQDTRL

As to `COc1ccc(CCNC(=O)[C@@H]2CC(=O)N(C)[C@@H](CC(C)C)C(=O)N3CCCC[C@@H]3C(=O)N[C@H](Cc3ccccc3)COc3ccnc(OC)c3C(=O)N2)cc1` [Example 185, (7S,11S,17aR,20R)-20-benzyl-11-isobutyl-4-methoxy-N-(4-methoxyphenethyl)-10-methyl-5,9,12,18-tetraoxo-5,6,7,8,9,10,11,12,15,16,17,17a,18,19,20,21-hexadecahydro-14H-dipyrido[2,1-f:3′,4′-p][1]oxa[4,7,10,14]tetraazacycloheptadecine-7-carboxamide], the EC50 was found to be 0.379 µM and the Emax stood at 275%.
On the same counts, the results for `COc1nccc2c1C(=O)N[C@H](C(=O)NCCc1cccc(C)c1)CC(=O)N(C)[C@@H](CC(C)C)C(=O)N1CCCC[C@@H]1C(=O)N[C@H](Cc1ccccc1)CO2` [Example 186, (7S,11S,17aR,20R)-20-benzyl-11-isobutyl-4-methoxy-10-methyl-N-(3-methylphenethyl)-5,9,12,18-tetraoxo-5,6,7,8,9,10,11,12,15,16,17,17a,18,19,20,21-hexadecahydro-14H-dipyrido[2,1-f:3′,4′-p][1]oxa[4,7,10,14]tetraazacycloheptadecine-7-carboxamide] are 0.644 µM and 209%.
For the compound `COc1nccc2c1C(=O)N[C@H](C(=O)NCCc1cnn(C3CC3)n1)CC(=O)N(C)[C@@H](CC(C)C)C(=O)N1CCCC[C@@H]1C(=O)N[C@H](Cc1ccccc1)CO2` [Example 187, (7S,11S,17aR,20R)-20-benzyl-N-(2-(2-cyclopropyl-2H-1,2,3-triazol-4-yl)ethyl)-11-isobutyl-4-methoxy-10-methyl-5,9,12,18-tetraoxo-5,6,7,8,9,10,11,12,15,16,17,17a,18,19,20,21-hexadecahydro-14H-dipyrido[2,1-f:3′,4′-p][1]oxa[4,7,10,14]tetraazacycloheptadecine-7-carboxamide], the EC50 is 0.645 µM and the Emax was 267%.
Consider `COc1cnn(CCNC(=O)[C@@H]2CC(=O)N(C)[C@@H](CC(C)C)C(=O)N(C)C3(CC3)C(=O)N[C@H](Cc3ccccc3)COc3cnc4ccc(F)cc4c3C(=O)N2)c1` [Example 188, (3′S,7′S,13′R)-13′-benzyl-20′-fluoro-7′-isobutyl-N-(2-(4-methoxy-1H-pyrazol-1-yl)ethyl)-6′,9′-dimethyl-1′,5′,8′,11′-tetraoxo-2′,3′,4′,5′,6′,7′,8′,9′,11′,12′,13′,14′-dodecahydro-1′H-spiro[cyclopropane-1,10′-[1]oxa[4,7,10,14]tetraazacycloheptadecino[17,16-c]quinoline]-3′-carboxamide], for which the 50% effective concentration (EC50) was 0.586 µM and the Emax was 275%.
For `C#Cc1cccc(CCNC(=O)[C@@H]2CC(=O)N(C)[C@@H](CC(C)C)C(=O)N3CCCC[C@@H]3C(=O)N[C@H](Cc3ccccc3)COc3ccnc(OC)c3C(=O)N2)c1` [Example 189, (7S,11S,17aR,20R)-20-benzyl-N-(3-ethynylphenethyl)-11-isobutyl-4-methoxy-10-methyl-5,9,12,18-tetraoxo-5,6,7,8,9,10,11,12,15,16,17,17a,18,19,20,21-hexadecahydro-14H-dipyrido[2,1-f:3′,4′-p][1]oxa[4,7,10,14]tetraazacycloheptadecine-7-carboxamide], the EC50 turned out to be 0.453 µM and the Emax was 270%.
On to `COc1nccc2c1C(=O)N[C@H](C(=O)NCCc1nc3c(s1)CCC3)CC(=O)N(C)[C@@H](CC(C)C)C(=O)N1CCCC[C@@H]1C(=O)N[C@H](Cc1ccccc1)CO2` [Example 190, (7S,11S,17aR,20R)-20-benzyl-N-(2-(5,6-dihydro-4H-cyclopenta[d]thiazol-2-yl)ethyl)-11-isobutyl-4-methoxy-10-methyl-5,9,12,18-tetraoxo-5,6,7,8,9,10,11,12,15,16,17,17a,18,19,20,21-hexadecahydro-14H-dipyrido[2,1-f:3′,4′-p][1]oxa[4,7,10,14]tetraazacycloheptadecine-7-carboxamide], for which the EC50 was 0.334 µM and the Emax worked out at 310%.
On the same counts, the results for `COc1nccc2c1C(=O)N[C@H](C(=O)NCCc1cc(C(F)F)no1)CC(=O)N(C)[C@@H](CC(C)C)C(=O)N1CCCC[C@@H]1C(=O)N[C@H](Cc1ccccc1)CO2` [Example 191, (7S,11S,17aR,20R)-20-benzyl-N-(2-(3-(difluoromethyl)isoxazol-5-yl)ethyl)-11-isobutyl-4-methoxy-10-methyl-5,9,12,18-tetraoxo-5,6,7,8,9,10,11,12,15,16,17,17a,18,19,20,21-hexadecahydro-14H-dipyrido[2,1-f:3′,4′-p][1]oxa[4,7,10,14]tetraazacycloheptadecine-7-carboxamide] are 0.474 µM and 295%.
The like results for `COc1cc2c(cc1OC)C(=O)N[C@H](C(=O)NCCc1ccc(C)cc1)CC(=O)N(C)[C@@H](CC(C)C)C(=O)N(C)CC(=O)N[C@H](Cc1ccccc1)CO2` [Example 192, (3R,9S,13S)-3-benzyl-9-isobutyl-17,18-dimethoxy-7,10-dimethyl-N-(4-methylphenethyl)-5,8,11,15-tetraoxo-2,3,4,5,6,7,8,9,10,11,12,13,14,15-tetradecahydrobenzo[p][1]oxa[4,7,10,14]tetraazacycloheptadecine-13-carboxamide] were, in that order, 0.316 µM and 107%.
On the same counts, the results for `COc1ccc(CCNC(=O)[C@@H]2CC(=O)N(C)[C@@H](CC(C)C)C(=O)N(C)CC(=O)N[C@H](Cc3ccccc3)COc3cc(OC)c(OC)cc3C(=O)N2)cc1` [Example 193, (3R,9S,13S)-3-benzyl-9-isobutyl-17,18-dimethoxy-N-(4-methoxyphenethyl)-7,10-dimethyl-5,8,11,15-tetraoxo-2,3,4,5,6,7,8,9,10,11,12,13,14,15-tetradecahydrobenzo[p][1]oxa[4,7,10,14]tetraazacycloheptadecine-13-carboxamide] are 0.521 µM and 118%.
Regarding `CCOc1cccc(CCNC(=O)[C@@H]2CC(=O)N(C)[C@@H](CC(C)C)C(=O)N(C)CC(=O)N[C@H](Cc3ccccc3)COc3cc(OC)c(OC)cc3C(=O)N2)c1` [Example 194, (3R,9S,13S)-3-benzyl-N-(3-ethoxyphenethyl)-9-isobutyl-17,18-dimethoxy-7,10-dimethyl-5,8,11,15-tetraoxo-2,3,4,5,6,7,8,9,10,11,12,13,14,15-tetradecahydrobenzo[p][1]oxa[4,7,10,14]tetraazacycloheptadecine-13-carboxamide], the EC50 worked out at 0.613 µM and the Emax was determined as 178%.
On the same counts, the results for `COc1cccc(CCNC(=O)[C@@H]2CC(=O)N(C)[C@@H](CC(C)C)C(=O)N(C)CC(=O)N[C@H](Cc3ccccc3)COc3cc(OC)c(OC)cc3C(=O)N2)c1` [Example 195, (3R,9S,13S)-3-benzyl-9-isobutyl-17,18-dimethoxy-N-(3-methoxyphenethyl)-7,10-dimethyl-5,8,11,15-tetraoxo-2,3,4,5,6,7,8,9,10,11,12,13,14,15-tetradecahydrobenzo[p][1]oxa[4,7,10,14]tetraazacycloheptadecine-13-carboxamide] are 0.889 µM and 202%.
The like results for `COc1cc2c(cc1OC)C(=O)N[C@H](C(=O)NCCc1ccccc1F)CC(=O)N(C)[C@@H](CC(C)C)C(=O)N(C)CC(=O)N[C@H](Cc1ccccc1)CO2` [Example 196, (3R,9S,13S)-3-benzyl-N-(2-fluorophenethyl)-9-isobutyl-17,18-dimethoxy-7,10-dimethyl-5,8,11,15-tetraoxo-2,3,4,5,6,7,8,9,10,11,12,13,14,15-tetradecahydrobenzo[p][1]oxa[4,7,10,14]tetraazacycloheptadecine-13-carboxamide] were, in that order, 0.425 µM and 106%.
On the same counts, the results for `COc1cc2c(cc1OC)C(=O)N[C@H](C(=O)NCCc1ccc(N(C)C)cc1)CC(=O)N(C)[C@@H](CC(C)C)C(=O)N(C)CC(=O)N[C@H](Cc1ccccc1)CO2` [Example 197, (3R,9S,13S)-3-benzyl-N-(4-(dimethylamino)phenethyl)-9-isobutyl-17,18-dimethoxy-7,10-dimethyl-5,8,11,15-tetraoxo-2,3,4,5,6,7,8,9,10,11,12,13,14,15-tetradecahydrobenzo[p][1]oxa[4,7,10,14]tetraazacycloheptadecine-13-carboxamide] are 0.579 µM and 132%.
As to `COc1cccc2c1C(=O)N[C@H](C(=O)NCCc1ccc3c(c1)OCO3)CC(=O)N(C)[C@@H](CC(C)C)C(=O)N(CCC1CCCCC1)CC(=O)N[C@H](Cc1ccccc1)CO2` [Example 198, (3R,9S,13S)-N-(2-(benzo[d][1,3]dioxol-5-yl)ethyl)-3-benzyl-7-(2-cyclohexylethyl)-9-isobutyl-16-methoxy-10-methyl-5,8,11,15-tetraoxo-2,3,4,5,6,7,8,9,10,11,12,13,14,15-tetradecahydrobenzo[p][1]oxa[4,7,10,14]tetraazacycloheptadecine-13-carboxamide], the EC50 turned out to be 0.195 µM and the Emax worked out at 243%.
The like results for `COc1cccc(CCNC(=O)[C@@H]2CC(=O)N(C)[C@@H](CC(C)C)C(=O)N(CCC3CCCCC3)CC(=O)N[C@H](Cc3ccccc3)COc3cccc(OC)c3C(=O)N2)c1` [Example 199, (3R,9S,13S)-3-benzyl-7-(2-cyclohexylethyl)-9-isobutyl-16-methoxy-N-(3-methoxyphenethyl)-10-methyl-5,8,11,15-tetraoxo-2,3,4,5,6,7,8,9,10,11,12,13,14,15-tetradecahydrobenzo[p][1]oxa[4,7,10,14]tetraazacycloheptadecine-13-carboxamide] were, in that order, 0.23 µM and 214%.
Take `[2H]C([2H])([2H])Oc1cccc(CCNC(=O)[C@@H]2CC(=O)N(C)[C@@H](CC(C)C)C(=O)N(CCC3CCCCC3)CC(=O)N[C@H](Cc3ccccc3)COc3cccc(OC)c3C(=O)N2)c1` [Example 200, (3R,9S,13S)-3-benzyl-7-(2-cyclohexylethyl)-9-isobutyl-16-methoxy-N-(3-(methoxy-d3)phenethyl)-10-methyl-5,8,11,15-tetraoxo-2,3,4,5,6,7,8,9,10,11,12,13,14,15-tetradecahydrobenzo[p][1]oxa[4,7,10,14]tetraazacycloheptadecine-13-carboxamide]: the EC50 was 0.21 µM and the Emax was determined as 270%.
